Data published in patent US20170204197A1, “Goodpasture Antigen Binding Protein Detection and Inhibition and its Use in Diabetes” (FibroStatin, S.L., priority 2013, published 2017).

Tests used:
[1] = target: T1, GPBP (Homo sapiens, UniProt Q9Y5P4); conditions: from WO 2004/070025, WO 2011/054530, U.S. Pat. No. 8,586,776, WO2014/006020; cited from earlier work
T1 sequence (Q9Y5P4 1-624): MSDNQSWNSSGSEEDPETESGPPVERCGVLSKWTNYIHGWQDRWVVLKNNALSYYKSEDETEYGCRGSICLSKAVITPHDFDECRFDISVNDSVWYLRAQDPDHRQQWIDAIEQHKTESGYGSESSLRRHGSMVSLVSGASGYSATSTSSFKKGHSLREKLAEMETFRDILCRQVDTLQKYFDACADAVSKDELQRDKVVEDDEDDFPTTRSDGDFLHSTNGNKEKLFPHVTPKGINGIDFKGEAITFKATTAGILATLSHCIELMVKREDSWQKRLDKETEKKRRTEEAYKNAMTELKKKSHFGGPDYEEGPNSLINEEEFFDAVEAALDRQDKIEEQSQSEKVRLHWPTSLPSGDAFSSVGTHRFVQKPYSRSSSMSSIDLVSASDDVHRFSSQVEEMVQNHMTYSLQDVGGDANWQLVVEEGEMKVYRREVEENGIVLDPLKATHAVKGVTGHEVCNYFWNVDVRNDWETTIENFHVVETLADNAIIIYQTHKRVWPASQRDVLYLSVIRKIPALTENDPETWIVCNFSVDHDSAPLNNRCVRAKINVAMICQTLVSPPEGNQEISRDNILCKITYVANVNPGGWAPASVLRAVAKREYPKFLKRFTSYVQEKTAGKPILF

[2] = tested on: AS160 protein phosphorylated at Ser 318 (P Ser 318 AS160); assay: Western blot for AS160 phosphorylated at Ser 318 in A549 lysates (FIG. 2C); assay type: cell-based; conditions: A549 cells, DMEM:F-12 (315 mg glucose/dL), T12 50 μM, 20 h
Procedure: (§1) FIG. 2. […] A, A549 cells were cultured in DMEM plus 10% fetal bovine serum and penicillin/streptomycin with the indicated concentrations of glucose during 24 h. Then cells were lysed in 25 mM Tris-HCl pH 7.5, 150 mM NaCl, 1% Triton X-100, 0.1% SDS, 1 mM PMSF, 10 μg/mL leupeptin, 20 mM NaF at 4° C. during 30 min. Lysates were cleared by centrifugation at 16,000×g for 5 min (4° C.) and the protein concentration of supernatants was determined (Bio-Rad). […] Development was performed with Amersham ECL Prime Western Blotting Detection Reagent (GE Healthcare Lifesciences) and image acquisition with an ImageQuant LAS 4000 Mini device (GE Healthcare Lifesciences). […] After incubations cells were lysed as in A and protein concentrations in supernatants were similarly assessed. Glucose concentrations in the media were determined at the beginning and at the end of the incubation period with a Glucocard G+ meter (Arkray Factory, Inc.), and glucose uptake by cells was calculated using the protein concentrations of the corresponding lysates for normalization purposes.
(§2) A, A549 cells were cultured in DMEM plus 10% fetal bovine serum and penicillin/streptomycin with the indicated concentrations of glucose during 24 h. […] Lysates were cleared by centrifugation at 16,000×g for 5 min (4° C.) and the protein concentration of supernatants was determined (Bio-Rad). […]

[3] = tested on: A549 cells; assay: Glucose uptake by A549 cells under increased extracellular glucose (FIG. 2B); assay type: cell-based; conditions: DMEM:F-12 (315 mg glucose/dL), increasing concentrations of T12, 14 h
Procedure: as §1, §2

[4] = tested on: C2Cl2 mouse myoblasts differentiated to myotubes; assay: Glucose concentration in media of C2Cl2 myotubes at physiological glucose (FIG. 3); assay type: cell-based; conditions: initial glucose 115 mg/dL, T12 50 μM, indicated times
Procedure: C2Cl2 mouse myoblasts were differentiated to myotubes in DMEM supplemented with 2% horse serum and penicillin/streptomycin during 10 days, and then incubated in DMEM plus 0.25% horse serum with an initial glucose concentration of 115 mg/dL, in absence or presence of T12 (50 μM) during the indicated times. Glucose concentrations in media were determined with a Glucocard™ G+ meter (Arkray Factory, Inc.). Shown are means±SEM (n=2). […] C2Cl2 mouse myoblasts were differentiated to myotubes in DMEM supplemented with 2% horse serum and penicillin/streptomycin during 10 days, and then incubated in DMEM plus 0.25% horse serum with an initial glucose concentration of 115 mg/dL, in absence or presence of T12 (50 μM) during the indicated times. Glucose concentrations in media were determined with a Glucocard™ G+ meter (Arkray Factory, Inc.). Shown are means±SEM (n=2).

Row | Compound | inhibition of GPBP kinase activity [1] | phosphorylation of AS160 (Ser 318) [2] | glucose uptake [3] | extracellular glucose levels [4]
1 | Q2: isolated peptide representing 260SHCIE264 and flanking regions (LATLSHCIELMVKR) (SEQ ID NO: 8) | efficiently inhibited GPBP kinase activity | – | – | –
2 | COc1cccc2c1C(=O)c1c(O)c3c(c(O)c1C2=O)C[C@@](O)(C(=O)CO)C[C@@H]3O[C@H]1C[C@H](N)[C@H](O)[C@H](C)O1 [doxorubicin] | inhibit GPBP kinase activity | – | – | –
3 | COc1ccc(-c2ccc(-c3cccc(C)c3)c(C)c2)c(CCC(=O)O)c1 [T12, 3-[4″-methoxy-3,2′-dimethyl-(1,1′;4′,1″)terphenyl-2″-yl]propionic acid] | – | induced phosphorylation of AS160 | progressively enhanced glucose uptake | reduced the extracellular glucose levels in a concentration-dependent manner
